Measured values reported in the supplement of paper PMC10307832.

Legend:
Experiment in all cases: relative viability (nuclei count vs DMSO), 5 days (fraction); higher = more cells survive
[1] = compound: Cc1ccc(C(=O)Nc2ccc(CN3CCN(C)CC3)c(C(F)(F)F)c2)cc1C#Cc1cnc2cccnn12 [Ponatinib] + Cc1nc(NC(=O)N2CCC[C@H]2C(N)=O)sc1-c1ccnc(C(C)(C)C(F)(F)F)c1 [Alpelisib] (partner 2 µM)
Outline: (§1)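 Relative viability is defined as nuclei in treated wells over nuclei in vehicle wells. Duplicate plates were run and medians reported. Lung cancer cell lines in 1536-well plates were dosed by pin tool one day after seeding, with one drug or with a fixed anchor-drug dose plus five library-drug doses (not always all listed) in √10 steps, and nuclei were counted after 5 days.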

[2] = compound: Cc1ccc(Nc2nccc(N(C)c3ccc4c(C)n(C)nc4c3)n2)cc1S(N)(=O)=O [Pazopanib] + Cc1nc(NC(=O)N2CCC[C@H]2C(N)=O)sc1-c1ccnc(C(C)(C)C(F)(F)F)c1 [Alpelisib] (partner 2 µM)
Outline: as §1

[3] = compound: Cc1ccc(Nc2nccc(N(C)c3ccc4c(C)n(C)nc4c3)n2)cc1S(N)(=O)=O [Pazopanib] + CS(=O)(=O)CCNCc1ccc(-c2ccc3ncnc(Nc4ccc(OCc5cccc(F)c5)c(Cl)c4)c3c2)o1 [Lapatinib] (partner 2 µM)
Outline: as §1

[4] = compound: Cc1ccc(C(=O)Nc2ccc(CN3CCN(C)CC3)c(C(F)(F)F)c2)cc1C#Cc1cnc2cccnn12 [Ponatinib] + Nc1ncn([C@H]2C[C@H](O)[C@@H](CO)O2)c(=O)n1 [Decitabine] (partner 2 µM)
Outline: as §1

Cell Line | relative viability ([1]; first compound 0.002 µM) | relative viability ([1]; first compound 0.006325 µM) | relative viability ([1]; first compound 0.06325 µM) | relative viability ([1]; first compound 0.2 µM) | relative viability ([2]; first compound 0.01 µM) | relative viability ([2]; first compound 0.03162 µM) | relative viability ([2]; first compound 0.1 µM) | relative viability ([2]; first compound 0.3162 µM) | relative viability ([2]; first compound 1 µM) | relative viability ([3]; first compound 0.01 µM) | relative viability ([3]; first compound 0.03162 µM) | relative viability ([3]; first compound 0.1 µM) | relative viability ([3]; first compound 0.3162 µM) | relative viability ([3]; first compound 1 µM) | relative viability ([4]; first compound 0.002 µM) | relative viability ([4]; first compound 0.006325 µM) | relative viability ([4]; first compound 0.06325 µM) | relative viability ([4]; first compound 0.2 µM)
NCI-H1993 | 0.63 | 0.793 | 0.71 | 0.688 | 0.67 | 0.7 | 0.759 | 0.703 | 0.733 | 0.69 | 0.853 | 0.573 | 0.797 | 0.927 | 0.549 | 0.583 | 0.671 | 0.61
NCI-H2009 | 1.14 | 1.13 | 1.18 | 1.07 | 1.08 | 1.19 | 1.26 | 1.09 | 1 | 0.961 | 0.946 | 0.796 | 0.883 | 0.838 | 0.399 | 0.343 | 0.354 | 0.372
NCI-H2023 | 0.642 | 0.639 | 0.666 | 0.61 | 0.58 | 0.567 | 0.62 | 0.57 | 0.591 | 0.509 | 0.806 | 0.73 | 0.791 | 1.35 | 0.24 | 0.196 | 0.244 | 0.21
NCI-H2085 | 0.881 | 1.01 | 1.07 | 0.959 | 0.964 | 0.974 | 1.02 | 0.995 | 1.05 | 0.511 | 0.794 | 0.762 | 0.785 | 0.853 | 0.541 | 0.58 | 0.613 | 0.565
NCI-H2087 | 0.812 | 0.84 | 0.932 | 0.879 | 1.08 | 1.14 | 1.22 | 0.979 | 1.06 | 1.09 | 0.988 | 0.99 | 1.15 | 1.02 | 0.186 | 0.294 | 0.338 | 0.264
NCI-H2126 | 0.779 | 0.769 | 0.851 | 0.852 | 0.65 | 0.751 | 0.821 | 0.811 | 0.806 | 0.611 | 0.713 | 0.81 | 0.715 | 0.821 | 0.587 | 0.585 | 0.667 | 0.545
NCI-H2170 | 0.804 | 0.843 | 0.892 | 0.811 | 0.73 | 0.794 | 0.877 | 0.646 | 0.787 | 0.242 | 0.264 | 0.293 | 0.316 | 0.269 | 0.508 | 0.481 | 0.467 | 0.431
NCI-H2347 | 1 | 1.1 | 1.18 | 1.02 | 1.06 | 1.04 | 1.08 | 1.06 | 1.16 | 0.86 | 0.971 | 1.08 | 0.989 | 1.02 | 0.663 | 0.571 | 0.614 | 0.605
NCI-H2405 | 0.86 | 0.922 | 0.98 | 0.666 | 0.743 | 0.787 | 0.861 | 1.09 | 0.838 | 0.922 | 1.1 | 1.06 | 1.31 | 1.2 | 0.762 | 0.754 | 0.821 | 0.685
